This is an account of results in patent US20220064141A1, “BENZOPYRIDONE HETEROCYCLIC COMPOUND AND USE THEREOF” (BrightGene Bio-Medical Technology Co., Ltd., priority 2019, published 2022).

Bounds are passed on as bounds.

One assay deals with NCI-H358 human non-small cell lung cancer cell with KRAS G12C mutation. The assay is described as follows: Cell Titer-Glo cell viability, NCI-H358 cells (72 h). In kind it is cell-based. To be noted: Homo sapiens, NCI-H358, 72 h, class symbols. An excerpt:
Effect Example 1: Pharmacodynamic Assay 1 (Determination of the efficacy of the compounds of the present disclosure on NCI-H358 human non-small cell lung cancer cell with KRAS G12C mutation)
The following method was used to determine the effect of the compounds of the present disclosure on tumor cell proliferation.
For the KRAS G12C subtype, NCI-H358 non-small cell lung cancer cells with KRAS G12C mutation were used to determine the efficacy of the compounds in inhibiting cancer cell viability. NCI-H358 cells were cultured in a DMEM medium containing 10% fetal bovine serum, 100 U penicillin and […] streptomycin. The cells were cultured in an incubator with 5% CO2 at 37° C. Cancer cell viability was evaluated by determining the content of ATP with Cell Titer-Glo® kit (Luminescent Cell Viability Assay kit, please refer to the manufacturer's instructions for use) and evaluating the inhibition of cell growth.
The experimental method was proceeded in accordance with the steps in the instructions for the kit, and was described briefly as follows. The test compounds were first dissolved in DMSO to prepare stock solutions, and then the stock solutions were subjected to gradient dilution with the culture media of the corresponding cells, thereby preparing test samples. The final concentrations of the compounds were in the range of 30 μM to 0.01 nM. Tumor cells in logarithmic growth phase were seeded into a 96-well cell culture plate at an appropriate density. After the cell culture plate was left overnight in an incubator with 5% CO2 at 37° C., the test compound samples were added thereto and then the cells were further cultured for 72 hours. After the incubation was complete, an appropriate volume of Cell Titer-Glo® reagent was added into each well, and the cells were incubated at 37° C. for 1 to 4 hours. Then, the […] was read on a microplate reader.
On to `C=CC(=O)N1CCN(c2c(C#N)c(=O)n(-c3ccccc3C(C)C)c3cc(-c4ccc(C#N)cc4C)c(Cl)cc23)[C@@H](C)C1` [Compound I-50], for which the IC50 fell in the range of 100 to 1000 nM.

`C=CC(=O)N1CCN(c2c(C#N)c(=O)n(-c3ccccc3C(C)C)c3cc(-c4ccccc4CO)c(Cl)cc23)[C@@H](C)C1` [Compound I-65] gave an IC50 of 100 to 1000 nM.

As to `C=CC(=O)N1CCN(c2c(C#N)c(=O)n(-c3ccccc3C(C)C)c3cc(-c4cnc(F)cc4C)c(Cl)cc23)[C@@H](C)C1` [Compound I-32], the IC50 was in the range of 100 to 1000 nM.

Turning to `C=CC(=O)N1CCN(c2c(C#N)c(=O)n(-c3c(C(C)C)ncnc3C(C)C)c3cc(-c4c(OC)ccc(Cl)c4F)c(Cl)cc23)[C@@H](C)C1` [Compound I-87-1], the IC50 was less than 100 nM.

The compound `C=CC(=O)N1CCN(c2c(C#N)c(=O)n(-c3ccccc3C(C)C)c3cc(-c4cc(C)c(=O)n(C)c4)c(Cl)cc23)[C@@H](C)C1` [Compound I-16] showed an IC50 of 100 to 1000 nM.

Turning to `C=CC(=O)N1CCN(c2c(C#N)c(=O)n(-c3ccccc3C(C)C)c3cc(-c4cc(C)c(C)cc4C)c(Cl)cc23)[C@@H](C)C1` [Compound I-28], the IC50 is more than 1000 nM.

As for `C=CC(=O)N1CCN(c2c(C#N)c(=O)n(-c3ccccc3C(C)C)c3cc(-c4cc(C)cc(C)c4N)c(Cl)cc23)[C@@H](C)C1` [Compound I-81], the IC50 is 100 to 1000 nM.

`C=CC(=O)N1CCN(c2c(C#N)c(=O)n(-c3ccccc3C(C)C)c3cc(-c4cccc(Cl)c4F)c(Cl)cc23)[C@@H](C)C1` [Compound I-36] yielded an IC50 of 100 to 1000 nM.

Take `C=CC(=O)N1CCN(c2c(C#N)c(=O)n(-c3ccccc3C(C)C)c3cc(-c4c(N)ccc(Cl)c4F)c(Cl)cc23)[C@@H](C)C1` [Compound I-35]: the IC50 was less than 100 nM.

Compound `C=CC(=O)N1CCN(c2c(C#N)c(=O)n(-c3ccccc3C(C)C)c3cc(-c4ccccc4Cl)c(Cl)cc23)[C@@H](C)C1` [Compound I-18] returned an IC50 of 100 to 1000 nM.

`C=CC(=O)N1CCN(c2c(C#N)c(=O)n(-c3ccccc3C(C)C)c3cc(-c4c(N)cccc4F)c(Cl)cc23)[C@@H](C)C1` [Compound I-9]: the IC50 lay in the range of 100 to 1000 nM.

The compound `C=CC(=O)N1CCN(c2c(C#N)c(=O)n(-c3ccccc3C(C)C)c3cc(-c4ccc(Cl)c(Cl)c4C)c(Cl)cc23)[C@@H](C)C1` [Compound I-29] displayed an IC50 of 100 to 1000 nM.

`C=CC(=O)N1CCN(c2c(C#N)c(=O)n(-c3ccccc3Cl)c3cc(-c4c(OC)ccc(Cl)c4F)c(Cl)cc23)[C@@H](C)C1` [Compound I-85-1] returned an IC50 of 100 to 1000 nM.

`C=CC(=O)N1CCN(c2c(C#N)c(=O)n(-c3ccccc3C(C)C)c3cc(-c4ccc(F)cc4CO)c(Cl)cc23)[C@@H](C)C1` [Compound I-63] showed an IC50 of 100 to 1000 nM.

In turn, `CCn1nccc1-c1cc2c(cc1Cl)c(N1CCN(C(C)=O)C[C@@H]1C)c(C#N)c(=O)n2-c1ccccc1C(C)C` [Compound I-25] returned an IC50 of 100 to 1000 nM.

Turning to `C=CC(=O)N1CCN(c2c(C#N)c(=O)n(-c3ccccc3C(C)C)c3cc(-c4ccc(F)c5ccccc45)c(Cl)cc23)[C@@H](C)C1` [Compound I-22], the IC50 is less than 100 nM.

`C=CC(=O)N1CCN(c2c(C#N)c(=O)n(-c3ccccc3C(C)C)c3cc(-c4cccc(Cl)c4)c(Cl)cc23)[C@@H](C)C1` [Compound I-17] came in with an IC50 of more than 1000 nM.

For `C=CC(=O)N1CCN(c2c(C#N)c(=O)n(-c3ccccc3C(C)C)c3cc(-c4ccc(N)nc4C)c(Cl)cc23)[C@@H](C)C1` [Compound I-56], the IC50 was in the range of 100 to 1000 nM.

With `C=CC(=O)N1CCN(c2c(C#N)c(=O)n(-c3ccccc3C(C)C)c3cc(-c4cnc(OC)cc4C)c(Cl)cc23)[C@@H](C)C1` [Compound I-30], the IC50 was more than 1000 nM.

The same assay, now with this note: class symbols.
Compound `C=CC(=O)N1CCN(c2c(C#N)c(=O)n(-c3ccccc3C(C)C)c3cc(-c4ccc(F)cc4O)c(Cl)cc23)[C@@H](C)C1` [Compound I-72] came in with an IC50 of less than 100 nM.

With `C=CC(=O)N1CC2(CCN(c3c(C#N)c(=O)n(-c4ccccc4C(C)C)c4cc(-c5c(C)ccc6[nH]ncc56)c(Cl)cc34)CC2)C1` (single isomer, unassigned) [Compound I-5-1], the IC50 is more than 1000 nM.

In general, IC50 refers to the concentration that gives 50% inhibition. A lower IC50 goes with greater potency in that assay.
